Entries after “also recorded” stand apart in the source; their conditions may differ.

The IC50 is the concentration needed to halve the response being measured. A high value points to lower potency.

The target in one series is CXCR4 (Homo sapiens, UniProt P61073). Kind of series: Human CXCR4-binding assay ([125I]CXCL12 displacement, hCXCR4-transfected HEK293T membranes). Further details: expressed in transfected cells; host or cells: HEK293T. The procedure: concentrations of BPRCX807 in incubation buffer (50 mM HEPES-NaOH, pH 7.4, 100 mM NaCl, 5 mM MgCl2, 1 mM CaCl2, 0.5% BSA). Nonspecific binding was defined in the […]
Sequence of CXCR4 (P61073 whole entry): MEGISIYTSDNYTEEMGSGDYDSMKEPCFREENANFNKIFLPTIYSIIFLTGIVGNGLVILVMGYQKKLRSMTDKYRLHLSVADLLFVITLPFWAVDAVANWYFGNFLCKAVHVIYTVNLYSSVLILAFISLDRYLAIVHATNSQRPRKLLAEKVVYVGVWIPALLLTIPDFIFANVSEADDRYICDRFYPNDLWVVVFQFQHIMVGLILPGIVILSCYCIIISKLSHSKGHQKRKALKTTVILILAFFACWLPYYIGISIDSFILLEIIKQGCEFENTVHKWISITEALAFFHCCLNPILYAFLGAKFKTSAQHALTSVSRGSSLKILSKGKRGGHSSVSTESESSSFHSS
The reaction mixtures were incubated for 1.5 h at 30 °C and then transferred to a 96 -well GF/B filter plate (Merck Millipore, Billerica, MA).
The reaction mixtures were terminated by manifold filtration and washed with ice-cold wash buffer (50 mM HEPES-NaOH, pH 7.4, 100 mM NaCl) four times. The radioactivity bound to the filter was measured with a TopCount instrument (PerkinElmer, Waltham, MA). The IC50 values were determined as the concentrations of the compounds required to inhibit 50% of the specific binding of [125I]CXCL12 and were calculated by nonlinear regression (GraphPad software, San Diego, CA).
Pharmacokinetics and toxicological studies
Male C57BL/6 mice, each weighing 23.4–25.4 g, were quarantined for 1 week before drug treatment. Compounds dissolved in 100% saline were individually given to mice (n = 3) subcutaneously (6 mg/kg; nonfasted mice). […] The plasma samples were analyzed by liquid chromatography– tandem mass spectrometry (LC–MS/MS), and the data were calculated by a standard noncompartmental method using the Kinetica software program (InnaPhase). […]

The test system of series [1] is human liver cytochrome P450 isozymes (CYP 1A2, 2C9, 2C19, 2D6, 2E1, 3A4). The settings on record: 100 μM; 1A2, 2C9, 2C19, 2D6, 2E1, and 3A4 isozymes. From the text: The effects of BPRCX807 on the activity of six specific human liver cytochrome P450 isozymes (CYP 1A2, 2C9, 2C19, 2D6, 2E1, 3A4) expressed in baculovirus-infected insect cell supersomes were studied. The reactions used to measure the activity of these enzymes

The test system of the next series is CXCR4+CD34+ stem cells. Kind of series: CXCR4+CD34+ stem cell mobilization. The class given is in vivo, C57BL/6 mice. The note with it: 6 mg/kg SC, peripheral blood 2 h after dosing. The procedure:
Cy7, and CD206-APC (BioLegend, San Diego, CA) antibodies, as previously described.[8] Flow cytometry data were acquired on a BD FACSAria III flow cytometer and analyzed with […]
C57BL/6 male mice were treated with potential CXCR4 antagonist individually by subcutaneous injection, and then blood samples containing mobilized stem/progenitor cells were collected 2 hours later. After labeled with specific antibodies, including APC-conjugated anti-CXCR4 (clone 2B11; eBioscience) and FITC-conjugated anti-CD34 (clone RAM34; eBioscience), cells were washed, characterized and quantified by flow cytometer (Guava Technologies, Hayward, CA, USA). Each data point included at least 60,000 events for analysis of other cell types.
Western blotting was conducted by following standard procedures. HCA-1 or JHH-7 cells (10^5 cells per well) were seeded in 12-well plates (Costar, IL), incubated for 12 h and […]
Reverse transcription quantitative real time PCR
Total RNA was extracted from HCA-1 cells using the RNeasy Mini Kit (Qiagen, CA, USA). cDNAs were synthesized using the High-Capicity cDNA Reverse Transcription Kit (Applied Biosystems, CA, USA). Primers specific for Slug, Fn1, Cdh2, Vim, Foxc2, Zeb1, Zeb2, Twist1, Cdh1, Mta3, Cldn3, Cldn5, β-actin and GAPDH were used, and relative gene expression was determined using Real-Time SYBR Green PCR Master Mix (Applied Biosystems, CA, USA) on a QPCR System. […]

Take `Cc1cc(NC2CCN(C(=O)CCNCC(=O)O)CC2)nc(NCc2nc(CCCNCCCNC3CCCCC3)co2)n1` [BPRCX807]: the IC50 at CXCR4 turned out to be 40.4 ± 8 nM. In addition, the CYP450 inhibition entry in series [1] was “no inhibitory effects; also recorded: No inhibition”. In the series on CXCR4+CD34+ stem cells, the “Number of CXCR4+CD34+ stem cells mobilized, relative to AMD3100” value is “roughly 1.5 fold”.

Values taken from PMC8020795 (Proceedings of the National Academy of Sciences of the …, 2021).
